We go through six compounds from US9497963B2, “Methods and compositions for control of gypsy moth, Lymantria dispar” (Simon Fraser University, priority 2008, dated 2016).

“Also recorded” adds a separate entry of the source.

Test [1] deals with response of L. dispar antennae to (+)-disparlure. The experiment in a line: Competitive electroantennogram (EAG) screen, inhibition of response to (+)-disparlure (Example 4). The arrangement: species or system Lymantria dispar. The settings on record: for inhibition at 0.001 mg / inhibition at 0.01 mg / inhibition at 0.1 mg: Lymantria dispar, means ± S.E.; for inhibition at 0.001 mg: dose 1 μg on cartridge; for inhibition at 0.01 mg: dose 10 μg on cartridge; for inhibition at 0.1 mg: dose 100 μg on cartridge. On the procedure:
In this assay, libraries and individual compounds are tested for their ability to inhibit the antennal response to the sex attractant pheromone of the gypsy moth, (7R,8S) 2-methyl-7,8-epoxyoctadecane, also known as (+)-disparlure. The controls consisted of a puff of clean air (negative) or of air passed over a cartridge impregnated with (+)-disparlure (100 ng) (positive). The treatments consisted of 100 ng of (+)-disparlure in combination with a compound or library at 1, 10 or 100 μg, on a cartridge over which the air puff was passed. The small arrows above the trace denote the times where the air was puffed over the antenna.
For some compounds, such as the para Compounds 2c{n}, 2c{n,n} and libraries 3c{n,1-5}, EAG competitive assays were performed to investigate whether the diethers inhibit the response of L. dispar antennae to the main component of the sex attractant pheromone cis-(7R,8S)-epoxy-2-methyloctadecane [(+)-disparlure] (FIG. 4). For EAGs a male moth antenna was mounted and placed in front of a stimulus-delivery glass tubing (160×5 mm ID) with a side orifice (2 mm diam) near (2 cm) the distal opening. The tubing was connected to one port of an apparatus (Stimulus Controller CS-05, Syntech Research and Equipment, NL-1200BM Hilversum, The Netherlands) that generated a constant stream of clean air (300 ml/min). The second port of the apparatus was connected to a Pasteur pipette inserted through the side orifice of the stimulus-delivery tubing. The test stimulus was applied to a disc of Whatman #1 filter paper inside the Pasteur pipette and was discharged through a 0.3-sec pulse of air (600 ml/min) Receptor potentials of the antennae in response to test stimuli were recorded with a Syntech IDAC probe, amplifier and interfaced board, and were analyzed with EAG Syntech Software Version 2.4 (1996) Inhibition (%) was calculated as: % inhibition=(Dd−Ds)/Dd×100 (eq. 1)
Where Dd is the depolarization observed with pure disparlure (corrected for clean air background) and Ds is the depolarization with disparlure+sample. See FIG. 4 for a representative EAG inhibition assay trace.

The subject of test [2] is male gypsy moth antenna response to mixed pheromone/modulator plume. The experiment in a line: EAG peak broadening (PB) (Example 11). Also on record: species or system Lymantria dispar. The settings on record: for activity (% peak broadening): mixed plume, 100 μg compound and 100 ng pheromone (puff v vs puff ii). How it is done: A mixed pheromone/modulator plume could elicit a prolonged response (FIG. 1A, puff v; FIG. 2), and this was termed peak broadening (PB). PB was calculated from the EAG traces as follows: PB=100×(Δtv−Δtii)/Δtii
Where Δt was the width of the EAG peak (in s) from the start of the depolarization to the return to background potential.

Test [3] deals with male gypsy moth antenna. Kind of test: Coupled gas chromatographic-electroantennographic detection (GC-EAD). The settings on record: EAD peak size and shape (sharp/broad). Also on record: species or system Lymantria dispar. The method, boiled down: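 GC column effluent split between flame ionization detector and an excised male moth antenna held between saline-filled glass capillary electrodes, tip removed, in a warm air stream. Antennal potentials assigned to compounds by matching retention times with FID peaks.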

A further test deals with gypsy moth sensillum. The experiment in a line: Single sensillum recordings. Particulars: (+)-disparlure and compound mixed 1:1000. The arrangement: species or system Lymantria dispar.
The test system of another test is gypsy moths. Kind of test: Field test of trap catches, Northern Japan 2009 (Example 12). The class given is in vivo, Lymantria dispar. Particulars: (+)-dis 40 μg/lure & compound 40 mg/lure, vs (+)-dis alone. How it is done:
Ten traps were used per treatment. The solvent used to deliver the compounds onto the lures was doubly distilled hexane. The hexane was evaporated prior to packing and shipping the lures. The field test was conducted in 10 replicates in Northern Japan. The test was conducted Aug. 16-18, 2009, in an area where gypsy moths are known to live. […] Traps were arranged randomized, placed on platforms. The experiment was conducted blind. The lures contained 40 μg disparlure/lure, a low dose for a field trial (typically 100 μg-1 mg are used). For each treatment, 10 traps were deployed.

Test [4] relates to male gypsy moth antenna. Kind of test: EAG effects of 3c{1,3} with (+)-disparlure at different ratios (Example 14). The arrangement: species or system Lymantria dispar. The settings on record: for STI (short-term inhibition): mixture relative to first puff of pure (+)-disparlure. An excerpt: The compound has the following effects in the EAG at the following ratios: […]
The test system of test [5] is male gypsy moth antenna response to odorants other than (+)-1. Kind of test: Long-term inhibition of responses to other pheromone and host plant odorants, EAG (Example 8, first objective). The settings on record: antagonist 100 μg. The arrangement: species or system Lymantria dispar. How it is done:
To determine whether the long-term inhibitory effects of 3c{2,3} and DEET are specific to (+)-1 or also apply to other odorants, compound 3c{2,3} and DEET were tested further with other odorants: (−)-1, racemic 1, dispar alkene, methyl eugenol and 1-hexanol.
These included (−)-1, racemic 1, dispar alkene (the alkene corresponding to the carbon framework of 1), methyl eugenol (a characteristic oak wood odorant) and 1-hexanol (a green leaf volatile, shown previously to be detected by gypsy moth antennae). For the pure odorant puffs, (−)-1 and racemic 1 were administered at 100 ng/cartridge, the alkene, methyl eugenol was administered at 1 μg/cartridge and 1-hexanol was administered at 100 μg/cartridge. The antagonists were both administered at 100 μg/cartridge, mixed with the appropriate dose of the odorant. The puff order was: i) air, ii) pure odorant, iii) odorant+antagonist, iv) pure odorant. All puffs were corrected for the air response as in Eq. 1. STI values were obtained from the depolarization […]. LTI values were obtained by comparing the depolarization of puff iv relative to that of puff ii.

[6] abbreviates: odorant racemic disparlure 100 ng.

The inhibition is the relative decrease from the control value, in per cent. On to `COc1ccc(OC)cc1` [3c{1,1}, 1,4-Dimethoxy benzene], for which, in test [1], the inhibition at 0.001 mg came to 4 ± 6%, the inhibition at 0.01 mg was -8 ± 9% and the inhibition at 0.1 mg was 38 ± 7%. The “activity (% peak broadening)” value in test [2] came out at 77 ± 12%. Moreover, the GC-EAD activity result in the test with male gypsy moth antenna [3] is reported as “+ sharp”.

With `CCCOc1ccc(OC)cc1` [3c{1,3}, 1-methoxy-4-propoxy-benzene], in the test with gypsy moth sensillum, the “enhancement of neuronal activity” value is on record as “significant”. Also, the “trap catches in the field” value in the test with gypsy moths is given as “enhanced the trap catches significantly”. Besides, in test [2] (1:1000 ratios), the “peak broadening / prolongation of the EAG signal (in words)” value was “significant prolongation of the EAG signal; also recorded: strongest peak broadening compound”. For the same compound, the “activity (% peak broadening)” value in test [2] is 175 ± 23%. Also, the “STI (short-term inhibition)” value in the test with male gypsy moth antenna [4] (100 ng (+)-disparlure + 1 μg 3c{1,3}, ratio 1:10 by mass) was 28 ± 16 (6); with male gypsy moth antenna [4] (100 ng (+)-disparlure + 10 μg 3c{1,3}, ratio 1:100 by mass), −2 ± 5 (6); in the test with male gypsy moth antenna [4] (100 ng (+)-disparlure + 100 μg 3c{1,3}, ratio 1:1000 by mass) it was 48 ± 14 (6). The “LTI (long-term inhibition)” value with male gypsy moth antenna [4] ((+)-disparlure puff immediately after last mixed puff (1:1000 ratio), relative to first (+)-disparlure reference puff) is listed as 39 ± 12 (6). Besides, in the test on male gypsy moth antenna [3], the GC-EAD activity result is “+ sharp”.

Regarding `CCOc1ccc(OCC)cc1` [3c{2,2}, 1,4-Diethoxy benzene], in test [1], the inhibition at 0.001 mg was 4 ± 13%, the inhibition at 0.01 mg stood at 45 ± 6% and the inhibition at 0.1 mg was -3 ± 13%. In test [2], the “activity (% peak broadening)” value is reported as 71 ± 30%. The GC-EAD activity result in the test with male gypsy moth antenna [3] is “Trace”.

`CCCOc1ccc(OCC)cc1` [3c{2,3}, 1-ethoxy-4-propoxy benzene]: the “long-term activity (%)” value in test [5] (odorant 1-hexanol 100 μg) came to 29 ± 18%; in test [5] (odorant (−)-disparlure 100 ng) it was 43 ± 12%; in test [5] (odorant dispar alkene 1 μg), 39 ± 12%; in test [5] (odorant methyl eugenol 1 μg), 46 ± 24%; in test [5] (setting [6]), 69 ± 5%. The “short-term activity (%)” value in test [5] (odorant 1-hexanol 100 μg) was −34 ± 28%; in test [5] (odorant dispar alkene 1 μg), −244 ± 15%; in test [5] (setting [6]), −154 ± 45%. The “trap catches in the field” value in the test with gypsy moths is reported as “enhanced the trap catches significantly”. Further, the “activity (% peak broadening)” value in test [2] came to 94 ± 24%. In the test with male gypsy moth antenna [3], the GC-EAD activity entry is recorded as “None”.

`CCCOc1ccc(OCCC)cc1` [3c{3,3}, 1,4-Dipropoxy benzene]: in test [1], the “inhibitory activity on antennal pheromone responses (in words)” value was “moderate inhibitory activity”, the inhibition at 0.001 mg was 5 ± 16%, the inhibition at 0.01 mg was 55 ± 7% and the inhibition at 0.1 mg was -3 ± 15%. In the test on male gypsy moth antenna [3], the GC-EAD activity result is “None”.

With `CC(C)CCOc1ccc(OCCC(C)C)cc1` [3c{5,5}, 1,4-Di-(3-methyl-butyloxy) benzene], in test [1], the “inhibitory activity on antennal pheromone responses (in words)” value is on record as “moderate inhibitory activity”, the inhibition at 0.001 mg turned out to be 63 ± 12%, the inhibition at 0.01 mg was 38 ± 22% and the inhibition at 0.1 mg was 64 ± 11%. For the same compound, the GC-EAD activity result in the test on male gypsy moth antenna [3] was “None”.
